{"source": "paper PMC11747885", "about": "“Potent inhibitors of the human RNA ligase Rlig1 highlights its role in RNA integrity maintenance under oxidative cellular stress” (Chemical Science, 2025)", "key": {"HEK293 cells": {"tested_on": "HEK293 cells", "test": "Cell viability assay of HEK293 cells treated with inhibitors (CellTiter-Glo)", "settings": "for cytotoxicity (in words): HEK293, 24 h, up to 30 μM; for EC50: HEK293, 24 h compound, highest concentration 30 μM, n = 3; for IC50 (Figure 3D: EC50 values for plot; log(inhibitor) vs. response -- Variable slope (four parameters)) / LogIC50 (log(inhibitor) vs. response -- Variable slope (four parameters)): HEK293 cell viability, fit per plate (3 plates, 4 technical replicates each); for IC50 (Figure 3D: EC50 values for plot; log(inhibitor) vs. response -- Variable slope (four parameters)): highest tested concentration 30 µM; for LogIC50 (log(inhibitor) vs. response -- Variable slope (four parameters)): log of [µM]"}, "[1]": {"molecular_target": "T1, human DNA ligase 1 (hLig1) (Homo sapiens, UniProt P18858)", "T1 construct": "made in house; host or cells: E. coli Rosetta BL21 (DE3), pET28a-hLig1", "T1 sequence (P18858 whole entry)": "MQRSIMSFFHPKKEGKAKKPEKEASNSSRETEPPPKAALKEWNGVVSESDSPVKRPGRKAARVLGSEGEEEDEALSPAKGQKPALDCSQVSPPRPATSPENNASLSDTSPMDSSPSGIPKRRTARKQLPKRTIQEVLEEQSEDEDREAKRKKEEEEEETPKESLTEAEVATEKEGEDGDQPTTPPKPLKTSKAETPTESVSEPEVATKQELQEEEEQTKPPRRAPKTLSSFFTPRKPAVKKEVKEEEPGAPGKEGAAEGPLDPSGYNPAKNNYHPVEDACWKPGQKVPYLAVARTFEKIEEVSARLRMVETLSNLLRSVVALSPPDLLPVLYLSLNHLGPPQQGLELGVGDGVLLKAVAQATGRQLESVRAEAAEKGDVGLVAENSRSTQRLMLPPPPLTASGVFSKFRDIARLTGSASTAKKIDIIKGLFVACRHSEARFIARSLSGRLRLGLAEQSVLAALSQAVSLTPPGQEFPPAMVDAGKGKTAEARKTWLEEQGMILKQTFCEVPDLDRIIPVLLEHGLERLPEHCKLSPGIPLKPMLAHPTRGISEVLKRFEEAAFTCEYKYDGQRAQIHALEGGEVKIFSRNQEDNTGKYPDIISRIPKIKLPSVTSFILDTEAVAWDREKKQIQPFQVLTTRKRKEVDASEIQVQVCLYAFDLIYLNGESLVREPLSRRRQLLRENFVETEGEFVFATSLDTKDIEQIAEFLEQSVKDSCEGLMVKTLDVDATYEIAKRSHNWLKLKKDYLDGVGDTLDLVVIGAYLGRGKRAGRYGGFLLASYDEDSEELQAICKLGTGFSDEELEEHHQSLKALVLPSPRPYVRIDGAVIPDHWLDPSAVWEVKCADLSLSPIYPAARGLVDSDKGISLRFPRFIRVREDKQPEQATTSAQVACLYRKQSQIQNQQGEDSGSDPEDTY", "test": "DNA ligation assay with various hLig1 concentration at constant inhibitor concentration", "type": "biochemical", "settings": "30 min 37 °C; for DNA product formation: 10 µM compound, three replicates"}, "Rlig1-AMP [2]": {"molecular_target": "T2, Rlig1-AMP (Homo sapiens, UniProt Q8N999)", "T2 construct": "made in house; host or cells: E. coli BL21 (DE3), pET15b-Rlig1", "T2 sequence (Q8N999 whole entry)": "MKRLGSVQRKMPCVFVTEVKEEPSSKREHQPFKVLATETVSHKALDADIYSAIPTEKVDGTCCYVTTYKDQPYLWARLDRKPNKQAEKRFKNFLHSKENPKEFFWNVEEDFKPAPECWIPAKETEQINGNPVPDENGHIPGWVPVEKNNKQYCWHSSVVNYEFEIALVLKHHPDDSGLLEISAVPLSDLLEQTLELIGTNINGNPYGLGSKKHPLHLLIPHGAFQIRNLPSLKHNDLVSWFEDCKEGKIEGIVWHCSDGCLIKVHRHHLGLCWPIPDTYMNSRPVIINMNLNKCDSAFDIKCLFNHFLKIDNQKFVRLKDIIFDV", "test": "Radioactive RNA ligation assay (hit validation, 10 µM test and IC50 determination)", "type": "biochemical", "settings": "for inhibition of Rlig1-AMP ligation (urea-PAGE): 10 μM compound; for IC50: n = 3; for percentage inhibition (dose response curve for IC50): replicates I-III; for LogIC50 (best-fit value): log of µM; for Bottom (best-fit value) / Top (best-fit value): log(inhibitor) vs. response, variable slope (four parameters)"}, "[3]": {"settings": "ultrasonic/warming, ref MedChemExpress, cited from earlier work"}, "Rlig1-AMP [4]": {"molecular_target": "T2, Rlig1-AMP", "test": "FRET-based high-throughput screening of inhibitors for Rlig1-AMP", "type": "biochemical", "settings": "HTS hits; for 1-D Distance: difference of raw data w/o and w enzyme; for Raw data [w Enyzm]: with enzyme; for Raw data [w/o Enzym]: without enzyme"}, "[5]": {"settings": "ref MedChemExpress, cited from earlier work"}, "[6]": {"settings": "four-parameter fit, read-out: IC50 (best-fit value)"}, "[7]": {"settings": "radioactive ligation assay, 500 nM Rlig1-AMP, 20 min 37 °C, read-out: IC50"}}, "note": "Values joined by “and” are separate entries in the source; they are usually repeats but may differ in a detail not shown here. Identical values can stand only once. “Also recorded” adds a separate entry of the source. Like-named read-outs stand apart in the source and are kept apart here."}
{"molecule": "CNc1nccc(Nc2ccc(NC(=O)c3ccc(Nc4ccnc5ccccc45)cc3)cc2)n1", "note": "[Compound 42]", "values": [{"measurement": "cytotoxicity (in words)", "setting": "HEK293 cells", "result": "comparatively high cytotoxicity"}, {"measurement": "EC50", "setting": "HEK293 cells", "result": 3.51, "unit": "µM"}, {"measurement": "IC50 (Figure 3D: EC50 values for plot; log(inhibitor) vs. response -- Variable slope (four parameters))", "setting": "HEK293 cells", "result": "3.237 µM and 3.382 µM and 4.036 µM"}, {"measurement": "LogIC50 (log(inhibitor) vs. response -- Variable slope (four parameters))", "setting": "HEK293 cells", "result": "0.5101 and 0.5292 and 0.6059"}, {"measurement": "DNA product formation", "setting": "[1]; hlig1 0.0315 µM", "result": "8.9605% and 14.7712% and 28.5706%"}, {"measurement": "DNA product formation", "setting": "[1]; hlig1 0.0625 µM", "result": "20.859% and 38.2979% and 41.6376%"}, {"measurement": "DNA product formation", "setting": "[1]; hlig1 0.5 µM", "result": "72.119% and 74.3311% and 77.4812%"}, {"measurement": "inhibition of Rlig1-AMP ligation (urea-PAGE)", "setting": "Rlig1-AMP [2]; 500 nM Rlig1-AMP, 20 min 37 °C", "result": "Ligation was inhibited; also recorded: fully inhibited"}, {"measurement": "HillSlope (best-fit value)", "setting": "Rlig1-AMP [2]; four-parameter fit", "result": 5.584}, {"measurement": "Span (best-fit value)", "setting": "Rlig1-AMP [2]; four-parameter fit", "result": 91.59}, {"measurement": "IC50", "setting": "Rlig1-AMP [2]; [6]", "result": 3.29, "unit": "µM"}, {"measurement": "percentage inhibition (dose response curve for IC50)", "setting": "Rlig1-AMP [2]; log Compound [µM] 0.273001", "result": "16.0159 and 7.852 and 10.1751"}, {"measurement": "percentage inhibition (dose response curve for IC50)", "setting": "Rlig1-AMP [2]; log Compound [µM] 0.574031", "result": "79.3655 and 83.1907 and 44.7582"}, {"measurement": "percentage inhibition (dose response curve for IC50)", "setting": "Rlig1-AMP [2]; log Compound [µM] 0.875061", "result": "100 and 98.6279 and 97.3725"}, {"measurement": "percentage inhibition (dose response curve for IC50)", "setting": "Rlig1-AMP [2]; log Compound [µM] 1.17609", "result": "100 (2×) and 92.704"}, {"measurement": "percentage inhibition (dose response curve for IC50)", "setting": "Rlig1-AMP [2]; log Compound [µM] 1.47712", "result": 100}, {"measurement": "percentage inhibition (dose response curve for IC50)", "setting": "Rlig1-AMP [2]; log Compound [µM] -0.0280287", "result": "9.717 and 4.5039 and 9.184"}, {"measurement": "percentage inhibition (dose response curve for IC50)", "setting": "Rlig1-AMP [2]; log Compound [µM] -0.329059", "result": "6.426 and 0 and 5.66"}, {"measurement": "percentage inhibition (dose response curve for IC50)", "setting": "Rlig1-AMP [2]; log Compound [µM] -0.630089", "result": "11.6754 and 8.294 and 11.6155"}, {"measurement": "LogIC50 (best-fit value)", "setting": "Rlig1-AMP [2]; four-parameter fit", "result": 0.5177}, {"measurement": "Bottom (best-fit value)", "setting": "Rlig1-AMP [2]", "result": 7.458}, {"measurement": "Top (best-fit value)", "setting": "Rlig1-AMP [2]", "result": 99.05}, {"measurement": "IC50", "setting": "Rlig1-AMP [2]; [7]", "result": 3.29, "unit": "µM"}]}
{"molecule": "COc1cccc2c1C(=O)c1c(O)c3c(c(O)c1C2=O)C[C@@](O)(C(=O)CO)C[C@@H]3O[C@H]1C[C@H](N)[C@H](O[C@@H]2CCCCO2)[C@H](C)O1.Cl", "note": "[Pirarubicin (Hydrochloride)]", "values": [{"measurement": "solubility, DMSO", "setting": "[3]", "result": "20.83 mg/mL and 31.37 mM"}, {"measurement": "solubility, H2O", "setting": "[3]; H2O", "result": "< 100", "unit": "µg/mL"}, {"measurement": "1-D Distance", "setting": "Rlig1-AMP [4]", "result": 1020}, {"measurement": "1-D Distance.npi", "setting": "Rlig1-AMP [4]; normalised value of 1-D Distance", "result": 86.4182}, {"measurement": "Raw data [w Enyzm]", "setting": "Rlig1-AMP [4]", "result": 2238}, {"measurement": "Raw data [w/o Enzym]", "setting": "Rlig1-AMP [4]", "result": 3258}]}
{"molecule": "O=C1c2ccccc2C(=O)c2c1cc(S(=O)(=O)Nc1ccc(C(F)(F)F)cc1)c(O)c2O", "note": "[PGMI-004A]", "values": [{"measurement": "solubility", "setting": "[5]; DMSO", "result": "≥ 125 mg/mL and ≥ 269.76 mM"}, {"measurement": "1-D Distance", "setting": "Rlig1-AMP [4]", "result": 1480}, {"measurement": "1-D Distance.npi", "setting": "Rlig1-AMP [4]; normalized value (npi)", "result": 78.7935}, {"measurement": "Raw data [w Enyzm]", "setting": "Rlig1-AMP [4]", "result": 2222}]}
{"molecule": "Nc1nc(Nc2ccc(NC(=O)c3ccc(Nc4ccnc5ccccc45)cc3)cc2)cc(C(F)(F)F)n1", "note": "[Compound 41]", "values": [{"measurement": "cytotoxicity (in words)", "setting": "HEK293 cells", "result": "comparatively high cytotoxicity"}, {"measurement": "EC50", "setting": "HEK293 cells", "result": 5.59, "unit": "µM"}, {"measurement": "IC50 (Figure 3D: EC50 values for plot; log(inhibitor) vs. response -- Variable slope (four parameters))", "setting": "HEK293 cells", "result": "5.211 µM and 5.311 µM and 6.697 µM"}, {"measurement": "LogIC50 (log(inhibitor) vs. response -- Variable slope (four parameters))", "setting": "HEK293 cells", "result": "0.717 and 0.7252 and 0.8259"}, {"measurement": "effect on hLig1 activity (in words)", "setting": "[1]; 10 μM compound, hLig1 titrated (500 nM to 31.3 nM)", "result": "least impact on hLig1 activity"}, {"measurement": "DNA product formation", "setting": "[1]; hlig1 0.0315 µM", "result": "32.8195% and 34.8543% and 48.0642%"}, {"measurement": "DNA product formation", "setting": "[1]; hlig1 0.0625 µM", "result": "59.0993% and 56.4484% and 66.8349%"}, {"measurement": "DNA product formation", "setting": "[1]; hlig1 0.5 µM", "result": "87.3568% and 90.1164% and 79.5057%"}, {"measurement": "inhibition of Rlig1-AMP ligation (urea-PAGE)", "setting": "Rlig1-AMP [2]; 500 nM Rlig1-AMP, 20 min 37 °C", "result": "Ligation was inhibited; also recorded: fully inhibited"}, {"measurement": "HillSlope (best-fit value)", "setting": "Rlig1-AMP [2]; four-parameter fit", "result": 6.706}, {"measurement": "Span (best-fit value)", "setting": "Rlig1-AMP [2]; four-parameter fit", "result": 91.68}, {"measurement": "IC50", "setting": "Rlig1-AMP [2]; [6]", "result": 7.98, "unit": "µM"}, {"measurement": "percentage inhibition (dose response curve for IC50)", "setting": "Rlig1-AMP [2]; log Compound [µM] 0.273001", "result": "1.895 and 15.4708 and 0.5134"}, {"measurement": "percentage inhibition (dose response curve for IC50)", "setting": "Rlig1-AMP [2]; log Compound [µM] 0.574031", "result": "11.1208 and 11.2726 and 0"}, {"measurement": "percentage inhibition (dose response curve for IC50)", "setting": "Rlig1-AMP [2]; log Compound [µM] 0.875061", "result": "30.9538 and 51.1087 and 45.619"}, {"measurement": "percentage inhibition (dose response curve for IC50)", "setting": "Rlig1-AMP [2]; log Compound [µM] 1.17609", "result": "95.8601 and 98.8258 and 95.9476"}, {"measurement": "percentage inhibition (dose response curve for IC50)", "setting": "Rlig1-AMP [2]; log Compound [µM] 1.47712", "result": "93.067 and 100 and 99.7336"}, {"measurement": "percentage inhibition (dose response curve for IC50)", "setting": "Rlig1-AMP [2]; log Compound [µM] -0.0280287", "result": "9.18 and 3.83 and 4.351"}, {"measurement": "percentage inhibition (dose response curve for IC50)", "setting": "Rlig1-AMP [2]; log Compound [µM] -0.329059", "result": "8.319 and 4.077 and 3.842"}, {"measurement": "percentage inhibition (dose response curve for IC50)", "setting": "Rlig1-AMP [2]; log Compound [µM] -0.630089", "result": "9.025 and 10.4021 and 1.823"}, {"measurement": "LogIC50 (best-fit value)", "setting": "Rlig1-AMP [2]; four-parameter fit", "result": 0.9022}, {"measurement": "Bottom (best-fit value)", "setting": "Rlig1-AMP [2]", "result": 6.221}, {"measurement": "Top (best-fit value)", "setting": "Rlig1-AMP [2]", "result": 97.9}, {"measurement": "IC50", "setting": "Rlig1-AMP [2]; [7]", "result": 7.98, "unit": "µM"}]}
{"molecule": "Cc1[nH]c(/C=C2\\C(=O)Nc3ccc(S(=O)(=O)Cc4c(Cl)cccc4Cl)cc32)c(C)c1C(=O)N1CCC[C@@H]1CN1CCCC1", "note": "[PHA-665752]", "values": [{"measurement": "solubility", "setting": "[5]; DMSO", "result": "50 mg/mL and 77.93 mM"}, {"measurement": "1-D Distance", "setting": "Rlig1-AMP [4]", "result": 1429}, {"measurement": "Raw data [w Enyzm]", "setting": "Rlig1-AMP [4]", "result": 5362}]}
{"molecule": "CCn1c(=O)/c(=C2\\Sc3ccccc3N2C)s/c1=C\\c1cccc[n+]1CC.[Cl-]", "note": "[MKT-077]", "values": [{"measurement": "solubility", "setting": "[5]; DMSO", "result": "56.67 mg/mL and 131.18 mM"}, {"measurement": "solubility", "setting": "[5]; H2O", "result": "< 0.1", "unit": "mg/mL"}, {"measurement": "1-D Distance", "setting": "Rlig1-AMP [4]", "result": 170}, {"measurement": "1-D Distance.npi", "setting": "Rlig1-AMP [4]; normalized value (npi)", "result": 104.232}, {"measurement": "Raw data [w Enyzm]", "setting": "Rlig1-AMP [4]", "result": 657}, {"measurement": "Raw data [w/o Enzym]", "setting": "Rlig1-AMP [4]", "result": 827}]}
{"molecule": "CC1(C)CCC(C)(C)c2cc(NC(=O)c3ccc(C(=O)O)cc3)ccc21", "note": "[Tamibarotene]", "values": [{"measurement": "solubility, DMSO", "setting": "[3]", "result": "25.5 mg/mL and 72.56 mM"}, {"measurement": "1-D Distance", "setting": "Rlig1-AMP [4]", "result": 1704}, {"measurement": "Raw data [w Enyzm]", "setting": "Rlig1-AMP [4]", "result": 8958}, {"measurement": "Raw data [w/o Enzym]", "setting": "Rlig1-AMP [4]", "result": 10662}]}
